Assay results reported in patent publication US20250074902A1, “FUSED BICYCLIC HETEROARYL AMIDE COMPOUND AS PROTEIN AGGREGATION INHIBITOR” (SHANGHAI JINGXIN BIOMEDICAL CO., LTD., priority 2021, published 2025).

These molecules were tested against T1, α-synuclein (Homo sapiens, UniProt P37840) (assay: Detection of the ability of compounds to inhibit α-synuclein self-aggregation by HPLC). Details: test compound 200 μg/mL, α-synuclein 250 μg/ml, 37° C., 9 days; HPLC peak area of α-synuclein multimers vs model group; read-out: inhibition rate (%).
T1 construct: purchased Sino Biological
Format: biochemical
Experimental: The test compound (for poorly soluble compounds, dissolve with an appropriate amount of DMSO first) and fresh α-synuclein monomers (purchased from Sino Biological) were added to pure water to a final protein concentration of 250 μg/ml, and the concentration of the test compound was 200 μg/mL, followed by incubation at 37° C. for 9 days. The peak area of α-synuclein multimers after incubation was detected by HPLC and the inhibition rate was calculated. […] Inhibition rate=(peak area of model group−peak area of example group)/peak area of model group×100%.
An inhibition at 200 µg/mL of 86.8% was found for CCCCC(Cc1c[nH]c2ccccc12)NC(=O)c1cc2ccc(N3CCN(C)CC3)nc2s1 (centres unmarked) [Example 2, N-[1-(1H-indol-3-yl)hexyl-2-yl]-6-(4-methylpiperazin-1-yl) thiophene[2,3-b]pyridine-2-carboxamide] in this work. An inhibition at 200 µg/mL of 90.6% was found for CCCCC(Cc1c[nH]c2ccccc12)NC(=O)c1nc2ccc(N3CCN(C)CC3)cc2s1 (centres unmarked) [Example 4, N-(1-(1H-indol-3-yl)hexane-2-yl)-6-(4-methylpiperazin-1-yl) benzo[d]thiazole-2-carboxamide] in this work. An inhibition at 200 µg/mL of 98.6% was found for CCCCC(Cc1c[nH]c2ccccc12)NC(=O)c1cc2cc(F)c(N3CCN(C)CC3)cc2s1 (centres unmarked) [Example 5, N-(1-(1H-indol-3-yl)hexane-2-yl)-5-fluoro-6-(4-methylpiperazin-1-yl) benzo[b]thiophene-2-carboxamide] in this work. An inhibition at 200 µg/mL of 97.8% was found for CCCCC(Cc1c[nH]c2ccccc12)NC(=O)c1cc2c(F)cc(N3CCN(C)CC3)cc2s1 (centres unmarked) [Example 6, N-(1-(1H-indol-3-yl)hexane-2-yl)-4-fluoro-6-(4-methylpiperazin-1-yl) benzo[b]thiophene-2-carboxamide] in this work. An inhibition at 200 µg/mL of 71.5% was found for CCCCC(Cc1c[nH]c2ccccc12)NC(=O)c1cc2cc(N3CCN(C)CC3)ccc2s1 (centres unmarked) [Example 7, N-(1-(1H-indol-3-yl)hexane-2-yl)-5-(4-methylpiperazine-1-yl) benzo[b]thiophene-2-carboxamide] in this work. An inhibition at 200 µg/mL of 73.7% was found for CCCCC(Cc1c[nH]c2ccccc12)NC(=O)c1cc2cnc(N3CCN(C)CC3)cc2s1 (centres unmarked) [Example 8, N-(1-(1H-indol-3-yl)hexane-2-yl)-6-(4-methylpiperazin-1-yl) thieno[3,2-c] pyridine-2-carboxamide] in this work. An inhibition at 200 µg/mL of 78.1% was found for CCCCC(Cc1c[nH]c2ccccc12)NC(=O)c1cc2c(C)nc(N3CCN(C)CC3)cc2s1 (centres unmarked) [Example 9, N-(1-(1H-indol-3-yl)hexane-2-yl)-4-methyl-6-(4-methylpiperazin-1-yl) thieno[3,2-c]pyridine-2-carboxamide] in this work. An inhibition at 200 µg/mL of 73.1% was found for CCCCC(Cc1c[nH]c2ccccc12)NC(=O)c1cc2cccc(N3CCN(C)CC3)c2s1 (centres unmarked) [Example 10, N-(1-(1H-indol-3-yl)hexane-2-yl)-7-(4-methylpiperazin-1-yl) benzo[b]thiophene-2-carboxamide] in this work. An inhibition at 200 µg/mL of 73.4% was found for CCCCC(Cc1c[nH]c2ccccc12)NC(=O)c1sc2cc(N3CCN(C)CC3)ccc2c1C (centres unmarked) [Example 11, N-(1-(1H-indol-3-yl)hexane-2-yl)-3-methyl-6-(4-methylpiperazin-1-yl) benzo[b]thiophene-2-carboxamide] in this work. An inhibition at 200 µg/mL of 86.9% was found for CCCCC(Cc1c[nH]c2ccccc12)NC(=O)c1cc2ccc(N3CCC(C)CC3)cc2s1 (centres unmarked) [Example 12, N-(1-(1H-indol-3-yl)hexane-2-yl)-6-(4-methylpiperidin-1-yl) benzo[b]thiophene-2-carboxamide] in this work. An inhibition at 200 µg/mL of 94.4% was found for CCCCC(Cc1c[nH]c2ccccc12)NC(=O)c1cc2ccc(N3CCN(C(C)C)CC3)cc2s1 (centres unmarked) [Example 13, N-(1-(1H-indol-3-yl)hexane-2-yl)-6-(4-isopropylpiperazin-1-yl) benzo[b]thiophene-2-carboxamide] in this work. An inhibition at 200 µg/mL of 73.5% was found for CCCCC(Cc1c[nH]c2ccccc12)NC(=O)c1cc2ccc(N3CCN(c4ccccc4)CC3)cc2s1 (centres unmarked) [Example 14, N-(1-(1H-indol-3-yl)hexane-2-yl)-6-(4-phenylpiperazine-1-yl) benzo[b]thiobene-2-carboxamide] in this work. An inhibition at 200 µg/mL of 96.2% was found for CCCCC(Cc1c[nH]c2ccccc12)NC(=O)c1cc2ccc(N3CCC(F)(F)CC3)cc2s1 (centres unmarked) [Example 15, N-(1-(1H-indol-3-yl)hexane-2-yl)-6-(4,4-difluoropiperidin-1-yl) benzo[b]thiophene-2-carboxamide] in this work. An inhibition at 200 µg/mL of 96.3% was found for CCCCC(Cc1c[nH]c2ccccc12)NC(=O)c1cc2ccc(N3CCC(C)(C)CC3)cc2s1 (centres unmarked) [Example 16, N-(1-(1H-indol-3-yl)hexane-2-yl)-6-(4,4-dimethylpiperidin-1-yl) benzo[b]thiobene-2-carboxamide] in this work.
